Test results as given in patent US20060228301A1, “Methods and compositions for determining targeted drug sensitivity and resistance in a cancer subject” (priority 2005, published 2006).

How the values were obtained:
[1] = system: rat neuroblastoma (C6) cells; assay: ratio of [1-13C1]-D-ribose to [1,2-13C2]-D-ribose (m1/m2) in cultured cells contacted with [1,2-13C2]-D-glucose; assay type: cell-based; settings: untreated ratio 2.35
Description: FIG. 6 depicts the results of in culture studies comparing the ratio of [1-^13C1]-D-ribose to [1,2-^13C2]-D-ribose in rat neuroblastoma (C6) cells which are sensitive to imatinib treatment. The increased ratio of m1/m2 ^13C in ribose indicates sensitivity to Gleevec, which is further increased by Hydroxyurea treatment, which is a well known chemotherapeutic agent for the treatment of various human cancers. The set of vertical bars on the left are observed values of m1 and the set of vertical bars on the right are observed values of m2. The calculated ratios of m1/m2 are provided above the horizontal lines.
(§1) When the ratio of [1-^13C1]-D-ribose to [1,2-^13C2]-D-ribose is less than 1 (e.g., 0.5) the patient is at risk of having a reduced response to treatment with a cancer therapeutic such as imatinib. The increased risk of developing a reduced response to imatinib includes any increased risk. In embodiments of the invention, the increased risk is about a 10% decrease in the ratio described above indicating the risk of developing imatinib resistance. In other embodiments, the increased risk is indicated by about a 10%, 15%, 20%, 25%, 50%, 75%, 85%, 90%, 95%, 98%, 99%, or 99.9% decrease in the ratio of [1-^13C1]-D-ribose to [1,2-^13C2]-D-ribose. […]

LAMA84r cells = settings: high doses; cited from earlier work
[2] = system: cultured myeloid (K-562) cells from patients with chronic myeloid leukemia; assay: ratio of [1-13C1]-D-ribose to [1,2-13C2]-D-ribose (m1/m2) in cultured CML myeloid cells exposed to Gleevec, ribose mass spectral analysis; assay type: cell-based, human; settings: myeloid cells from two patients resistant to Gleevec, increasing concentrations of Gleevec; cut off 0.65 for resistance
Description: FIG. 5 depicts the results of studies comparing the ratio of [1-^13C1]-D-ribose to [1,2-^13C2]-D-ribose in cultured myeloid cells from patients with chronic myeloid leukemia using increasing concentrations of Gleevec (“x” axis). The set of vertical bars on the left are observed values of m1 and the set of vertical bars on the right are observed values of m2. The calculated ratios of m1/m2 are provided above the horizontal lines. In this experiment, a cut off point of 0.65 to detect resistance was used to identify Gleevec resistance. Cells from two patients resistant to Gleevec have m1/m2 ratios below 0.65, as indicated by an asterisk.
as §1

K562r cells = settings: high doses; cited from earlier work

Row | SMILES | ratio of [1-13C1]-D-ribose to [1,2-13C2]-D-ribose (m1/m2) ([1]; 3.0 μM Gleevec) | response to Gleevec treatment (LAMA84r cells) | m1/m2 ratio [2] | response to Gleevec treatment (K562r cells) | ratio of [1-13C1]-D-ribose to [1,2-13C2]-D-ribose (m1/m2) ([1]; 100 μM hydroxyurea)
1 | Cc1ccc(NC(=O)c2ccc(CN3CCN(C)CC3)cc2)cc1Nc1nccc(-c2cccnc2)n1 [Gleevec, imatinib] | 2.97 | do not respond well even to high doses | below 0.65 | do not respond well even to high doses | –
2 | NC(=O)NO [hydroxyurea] | – | – | – | – | 3.59
